Oligonucleotides are written 5' to 3', each unit as a sugar letter and its base; * is a phosphorothioate linkage, no mark a phosphodiester; rarer units and linkages stand in square brackets, end groups in braces. Plain capitals give the bases only. e = 2'-O-(2-methoxyethyl) (MOE); k = constrained ethyl (cEt); [5mC] = 5-methylcytosine; d = 2'-deoxy (DNA)

These results are taken from USRE48461E1, “Modulation of androgen receptor expression” (Ionis Pharmaceuticals, Inc., priority 2012, dated 2021).

The subject of series [1] is AR mRNA. Put plainly: Antisense inhibition of human AR in HuVEC cells, single concentration (electroporation, qRT-PCR RTS3559). It counts as cell-based. As to conditions: ~24 h. The method, then: Antisense oligonucleotides were designed targeting an AR nucleic acid and were tested for their effects on AR mRNA in vitro. The antisense oligonucleotides were tested in a series of experiments that had similar culture conditions. […] Human primer probe set RTS3559 (forward sequence [NT], designated herein as SEQ ID NO: 9; reverse sequence [NT], designated herein as SEQ ID NO: 10; probe sequence [NT], designated herein as SEQ ID NO: 11) was used to measure mRNA levels. AR mRNA levels were adjusted according to total RNA content, as measured by RIBOGREEN®. […] A total of 155 oligonucleotides were tested. Additional antisense oligonucleotides were designed targeting an AR nucleic acid and were tested for their effects on AR mRNA in vitro. […] Human primer probe set RTS3559 was used to measure mRNA levels. AR mRNA levels were adjusted according to total RNA content, as measured by RIBOGREEN®. […] A total of 82 oligonucleotides were tested. Additional antisense oligonucleotides were designed targeting an AR nucleic acid and were tested for their effects on AR mRNA in vitro. […] Human primer probe set RTS3559 was used to measure mRNA levels. AR mRNA levels were adjusted according to total RNA content, as measured by RIBOGREEN®. […] A total of 40 oligonucleotides were tested. Additional antisense oligonucleotides were designed targeting an AR nucleic acid and were tested for their effects on AR mRNA in vitro. […] Human primer probe set RTS3559 was used to measure mRNA levels. AR mRNA levels were adjusted according to total RNA content, as measured by RIBOGREEN®. […] A total of 75 oligonucleotides were tested. Additional antisense oligonucleotides were designed targeting an AR nucleic acid and were tested for their effects on AR mRNA in vitro. […] Human primer probe set RTS3559 was used to measure mRNA levels. AR mRNA levels were adjusted according to total RNA content, as measured by RIBOGREEN®. […] A total of 616 oligonucleotides were tested. Additional antisense oligonucleotides were designed targeting an AR nucleic acid and were tested for their effects on AR mRNA in vitro. […] Human primer probe set RTS3559 was used to measure mRNA levels. AR mRNA levels were adjusted according to total RNA content, as measured by RIBOGREEN®. […] A total of 385 oligonucleotides were tested.
For orientation: In qPCR the cycle at which signal appears reflects the starting amount.

The test system of series [2] is AR mRNA. Description: Dose-dependent antisense inhibition of human AR in HuVEC cells (electroporation, qRT-PCR RTS3559, IC50). As to conditions: HuVEC, ~16 h. The class given is cell-based. The method, then:
(§1) After a treatment period of approximately 16 hours, RNA was isolated from the cells and AR mRNA levels were measured by quantitative real-time PCR. Human AR primer probe set RTS3559 was used to measure mRNA levels. AR mRNA levels were adjusted according to total RNA content, as measured by RIBOGREEN®. […] The antisense oligonucleotides were tested in a series of experiments that had similar culture conditions.
as §1, §1, §1, §1
(§2) After a treatment period of approximately 16 hours, RNA was isolated from the cells and AR mRNA levels were measured by quantitative real-time PCR. Human AR primer probe set RTS3559 was used to measure mRNA levels. AR mRNA levels were adjusted according to total RNA content, as measured by RIBOGREEN®.
as §2

Setting [3] is: 500 nM ASO, electroporation, Table 1.

The term % inhibition denotes the relative decrease from the control value, in per cent. “585271 (eA*kA*kG*dT*dT*dG*dT*dA*dG*dT*dA*dG*dT*k[5mC]*kG*e[5mC]) [compound 585271]”: the “% inhibition” value in the series with AR mRNA [1] (1,000 nM ASO, Table 13) was 57%.

Take “585264 (kA*kA*kG*dT*dT*dG*dT*dA*dG*dT*kA*kG*kT*e[5mC]*eG*e[5mC]) [compound 585264]”: in the series on AR mRNA [1] (1,000 nM ASO, Table 13), the “% inhibition” value was 62%.

For orientation: IC50 means the concentration needed to halve the response being measured. High values mean weaker potency in that assay, low ones greater potency in that assay. For “579669 (antisense eG*kG*kT*eT*eG*kA*kT*dT*dT*dA*dA*dT*dG*dG*kT*kT) [compound 579669]”, the “percent inhibition of AR” value with AR mRNA [2] (62.5 nM, Table 11) worked out at 24%; in the series with AR mRNA [2] (125.0 nM, Table 11) it was 39%; in the series on AR mRNA [2] (500.0 nM, Table 11), 74%; in the series with AR mRNA [2] (1000.0 nM, Table 11) it was 91%. The IC50 in the series on AR mRNA [2] (Table 11) was 207 nM.

Take “549345 (kT*k[5mC]*kT*dG*dG*dA*dA*d[5mC]*dA*dG*dA*dT*dT*k[5mC]*kT*kG; antisense) [compound 549345]”: the “% inhibition” value with AR mRNA [1] (setting [3]) was 82%.

“585233 (kA*kG*kT*dT*dG*dT*dA*dG*dT*dA*dG*kT*e[5mC]*eG*e[5mC]*eG) [compound 585233]”: in the series on AR mRNA [1] (1,000 nM ASO, Table 13), the “% inhibition” value turned out to be 69%.

As to “549386 (kG*k[5mC]*kT*dT*d[5mC]*dA*dT*d[5mC]*dT*d[5mC]*d[5mC]*dA*d[5mC]*kA*kG*kA; antisense) [compound 549386]”, the “% inhibition” value in the series on AR mRNA [1] (setting [3]) came out at 77%.

Turning to “585268 (kA*eA*kG*eT*dT*dG*dT*dA*dG*dT*dA*dG*eT*k[5mC]*eG*k[5mC]) [compound 585268]”, the “% inhibition” value with AR mRNA [1] (1,000 nM ASO, Table 13) came to 72%.

Consider “585263 (kA*kA*kG*dT*dT*dG*dT*dA*dG*dT*dA*kG*kT*k[5mC]*eG*e[5mC]) [compound 585263]”, for which the “% inhibition” value in the series with AR mRNA [1] (1,000 nM ASO, Table 13) worked out at 69%.

Regarding “569217 (antisense eG*kT*kT*kG*dA*dT*dT*dT*dA*dA*dT*dG*kG*kT*kT*eG) [compound 569217]”, the “percent inhibition of AR” value turned out to be 34% in the series with AR mRNA [2] (62.5 nM, Table 12); 39% with AR mRNA [2] (125.0 nM, Table 12); 64% in the series on AR mRNA [2] (500.0 nM, Table 12); 64% in the series with AR mRNA [2] (1000.0 nM, Table 12). This substance also came in with an IC50 with AR mRNA [2] (Table 12) of 247 nM.

Turning to “579672 (antisense eG*kT*kT*eG*kA*kT*dT*dT*dA*dA*dT*dG*dG*kT*kT*kG) [compound 579672]”, the “percent inhibition of AR” value in the series on AR mRNA [2] (62.5 nM, Table 11) is recorded as 9%; in the series on AR mRNA [2] (125.0 nM, Table 11), 30%; in the series on AR mRNA [2] (500.0 nM, Table 11), 72%; in the series with AR mRNA [2] (1000.0 nM, Table 11), 86%. Moreover, the IC50 in the series on AR mRNA [2] (Table 11) is 258 nM.

Turning to “585259 (eA*kA*kG*kT*dT*dG*dT*dA*dG*dT*dA*dG*dT*k[5mC]*kG*k[5mC]) [compound 585259]”, the “% inhibition” value with AR mRNA [1] (1,000 nM ASO, Table 13) turned out to be 71%.

On to “579670 (antisense eT*kG*kA*eT*kT*kT*dA*dA*dT*dG*dG*dT*dT*kG*k[5mC]*kA) [compound 579670]”, for which the “percent inhibition of AR” value with AR mRNA [2] (62.5 nM, Table 11) amounted to 27%; in the series with AR mRNA [2] (125.0 nM, Table 11), 28%; in the series on AR mRNA [2] (500.0 nM, Table 11) it was 75%; in the series with AR mRNA [2] (1000.0 nM, Table 11) it was 70%. Besides, in the series with AR mRNA [2] (Table 11), half-maximal inhibition (IC50) required 236 nM.

Turning to “585262 (kA*kA*kG*dT*dT*dG*dT*dA*dG*dT*dA*dG*kT*k[5mC]*kG*e[5mC]) [compound 585262]”, the “% inhibition” value with AR mRNA [1] (1,000 nM ASO, Table 13) was 77%.

Consider “585265 (eA*eA*kG*kT*dT*dG*dT*dA*dG*dT*dA*dG*kT*k[5mC]*eG*e[5mC]) [compound 585265]”, for which the “% inhibition” value with AR mRNA [1] (1,000 nM ASO, Table 13) is on record as 69%.

For the substance “585274 (kA*kA*kG*dT*dT*dG*dT*dA*dG*dT*dA*dG*dT*k[5mC]*kG*e[5mC]) [compound 585274]”, the “% inhibition” value in the series with AR mRNA [1] (1,000 nM ASO, Table 13) is 65%.

On to “585269 (eA*kA*eG*kT*dT*dG*dT*dA*dG*dT*dA*dG*eT*k[5mC]*eG*k[5mC]) [compound 585269]”, for which the “% inhibition” value in the series on AR mRNA [1] (1,000 nM ASO, Table 13) worked out at 73%.

With “569214 (antisense kG*kG*kT*dT*dG*dA*dT*dT*dT*dA*dA*dT*kG*kG*kT*eT) [compound 569214]”, the “percent inhibition of AR” value stood at 20% in the series on AR mRNA [2] (62.5 nM, Table 12); 26% in the series on AR mRNA [2] (125.0 nM, Table 12); 62% in the series with AR mRNA [2] (500.0 nM, Table 12); 76% in the series on AR mRNA [2] (1000.0 nM, Table 12). In addition, in the series on AR mRNA [2] (Table 12), half-maximal inhibition (IC50) required 265 nM.
